Measured values as given in article PMC9506414, “Novel 2,6,9-Trisubstituted Purines as Potent CDK Inhibitors Alleviating Trastuzumab-Resistance of HER2-Positive Breast Cancers” (Pharmaceuticals, 2022).

Experiments:
PCTK1 = system: PCTK1; design: method as in HMS LINCS database; details: 10 μM, ref HMS LINCS database; cited from earlier work
ERK8 = system: ERK8; design: method as in HMS LINCS database; details: 10 μM, ref HMS LINCS database; cited from earlier work
DYRK1A = target: T1, DYRK1A (Homo sapiens, UniProt Q13627); design: method as in HMS LINCS database; details: 10 μM, ref HMS LINCS database; cited from earlier work
T1 construct: purchased Reaction Biology Corp

CDKL2 = system: CDKL2; design: method as in HMS LINCS database; details: 10 μM, ref HMS LINCS database; cited from earlier work
CLK4 = target: T2, CLK4 (Homo sapiens, UniProt Q9HAZ1); design: method as in HMS LINCS database; details: 10 μM, ref HMS LINCS database; cited from earlier work
T2 construct: purchased Reaction Biology Corp

CDK4-cyclinD1 = system: CDK4-cyclinD1; design: method as in HMS LINCS database; details: 10 μM, ref HMS LINCS database; cited from earlier work
YSK1 = target: T3, YSK1 (Homo sapiens, UniProt O00506); design: method as in HMS LINCS database; details: 10 μM, ref HMS LINCS database; cited from earlier work
T3 construct: purchased Reaction Biology Corp
T3 sequence (O00506 whole entry): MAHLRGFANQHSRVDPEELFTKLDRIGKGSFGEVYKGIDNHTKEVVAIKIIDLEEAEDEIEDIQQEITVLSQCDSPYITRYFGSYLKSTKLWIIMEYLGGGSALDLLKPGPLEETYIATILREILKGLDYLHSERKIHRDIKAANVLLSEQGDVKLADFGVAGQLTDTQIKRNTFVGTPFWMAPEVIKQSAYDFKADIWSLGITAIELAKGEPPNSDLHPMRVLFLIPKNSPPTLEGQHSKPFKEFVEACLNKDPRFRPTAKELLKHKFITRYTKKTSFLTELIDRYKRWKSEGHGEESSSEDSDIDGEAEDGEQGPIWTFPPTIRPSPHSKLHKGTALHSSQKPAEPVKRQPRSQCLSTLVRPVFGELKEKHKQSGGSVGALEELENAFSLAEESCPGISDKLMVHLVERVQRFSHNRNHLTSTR

ABL1 = target: T4, ABL1 (Homo sapiens, UniProt P00519); assay: Kinome-wide inhibition profiling; assay type: biochemical
T4 construct: purchased Reaction Biology Corp
Description: (§1) In vitro CDK12/cyclinK assays for all compounds and in vitro kinome-wide inhibition profiling of 30d at 10 μM were performed by a CRO company (Reaction Biology Corp., San Diego, CA, USA).

YANK3 = target: T5, YANK3 (Homo sapiens, UniProt Q86UX6); assay: Kinome-wide inhibition profiling; assay type: biochemical
T5 construct: purchased Reaction Biology Corp
Description: as §1

ERN2 = target: T6, ERN2 (Homo sapiens, UniProt Q76MJ5); assay: Kinome-wide inhibition profiling; assay type: biochemical
T6 construct: purchased Reaction Biology Corp
Description: as §1

PKCzeta = target: T7, PKCzeta (Homo sapiens, UniProt Q05513); assay: Kinome-wide inhibition profiling; assay type: biochemical
T7 construct: purchased Reaction Biology Corp
Description: as §1

PRKCH = target: T8, PRKCH (Homo sapiens, UniProt P24723); assay: Kinome-wide inhibition profiling; assay type: biochemical
T8 construct: purchased Reaction Biology Corp
Description: as §1

ERK5 = target: T9, ERK5 (Homo sapiens, UniProt Q13164); assay: Kinome-wide inhibition profiling; assay type: biochemical
T9 construct: purchased Reaction Biology Corp
Description: as §1

VEGFR2 = target: T10, VEGFR2 (Homo sapiens, UniProt P35968); assay: Kinome-wide inhibition profiling; assay type: biochemical
T10 construct: purchased Reaction Biology Corp
Description: as §1

DYRK3 = target: T11, DYRK3 (Homo sapiens, UniProt O43781); assay: Kinome-wide inhibition profiling; assay type: biochemical
T11 construct: purchased Reaction Biology Corp
Description: as §1

EPHB1 = target: T12, EPHB1 (Homo sapiens, UniProt P54762); assay: Kinome-wide inhibition profiling; assay type: biochemical
T12 construct: purchased Reaction Biology Corp
Description: as §1

IRAK2 = target: T13, IRAK2 (Homo sapiens, UniProt O43187); assay: Kinome-wide inhibition profiling; assay type: biochemical
T13 construct: purchased Reaction Biology Corp
T13 sequence (O43187 whole entry): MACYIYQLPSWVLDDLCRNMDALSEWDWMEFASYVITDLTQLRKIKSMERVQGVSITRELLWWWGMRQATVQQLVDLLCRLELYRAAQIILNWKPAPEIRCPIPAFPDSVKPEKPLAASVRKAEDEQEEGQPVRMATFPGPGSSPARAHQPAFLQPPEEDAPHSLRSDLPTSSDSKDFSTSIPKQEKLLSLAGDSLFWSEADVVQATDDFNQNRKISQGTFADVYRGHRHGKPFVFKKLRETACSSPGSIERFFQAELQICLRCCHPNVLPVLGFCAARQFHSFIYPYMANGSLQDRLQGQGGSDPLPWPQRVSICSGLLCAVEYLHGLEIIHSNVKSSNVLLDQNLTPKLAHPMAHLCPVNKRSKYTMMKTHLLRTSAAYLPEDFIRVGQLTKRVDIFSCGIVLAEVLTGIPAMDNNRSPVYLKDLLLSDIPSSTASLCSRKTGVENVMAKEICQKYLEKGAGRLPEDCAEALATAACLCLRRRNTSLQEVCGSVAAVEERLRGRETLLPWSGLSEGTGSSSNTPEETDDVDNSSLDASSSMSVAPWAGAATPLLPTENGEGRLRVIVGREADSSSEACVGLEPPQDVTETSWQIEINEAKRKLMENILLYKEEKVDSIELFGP
Description: as §1

MYO3A = target: T14, MYO3A (Homo sapiens, UniProt Q8NEV4); assay: Kinome-wide inhibition profiling; assay type: biochemical
T14 construct: purchased Reaction Biology Corp
Description: as §1

CDK1/cyclinB = target: T15, CDK1/cyclinB (Homo sapiens, UniProt P06493); assay: Kinome-wide inhibition profiling; assay type: biochemical
T15 construct: purchased Reaction Biology Corp
T15 sequence (P06493 whole entry): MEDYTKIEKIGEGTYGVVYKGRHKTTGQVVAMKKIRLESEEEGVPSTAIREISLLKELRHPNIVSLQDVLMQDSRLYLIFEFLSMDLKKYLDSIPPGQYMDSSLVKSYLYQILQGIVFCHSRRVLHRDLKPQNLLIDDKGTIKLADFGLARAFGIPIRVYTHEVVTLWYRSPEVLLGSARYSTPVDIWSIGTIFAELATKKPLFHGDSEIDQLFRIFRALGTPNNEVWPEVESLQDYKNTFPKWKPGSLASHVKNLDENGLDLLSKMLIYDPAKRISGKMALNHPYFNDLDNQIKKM
T15 sequence (P14635 whole entry partner): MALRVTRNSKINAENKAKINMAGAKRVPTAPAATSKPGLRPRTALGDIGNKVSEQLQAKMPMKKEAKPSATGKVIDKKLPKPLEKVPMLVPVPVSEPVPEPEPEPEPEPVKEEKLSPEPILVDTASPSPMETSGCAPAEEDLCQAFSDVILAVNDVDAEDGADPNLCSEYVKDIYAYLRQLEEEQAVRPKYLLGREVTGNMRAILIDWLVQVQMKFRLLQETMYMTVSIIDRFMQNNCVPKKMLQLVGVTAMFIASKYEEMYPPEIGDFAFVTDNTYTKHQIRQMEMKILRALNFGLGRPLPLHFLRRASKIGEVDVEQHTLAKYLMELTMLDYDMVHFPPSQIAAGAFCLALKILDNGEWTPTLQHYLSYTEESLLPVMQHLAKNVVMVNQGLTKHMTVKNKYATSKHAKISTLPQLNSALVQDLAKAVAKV
Description: as §1

PAK6 = target: T16, PAK6 (Homo sapiens, UniProt Q9NQU5); assay: Kinome-wide inhibition profiling; assay type: biochemical
T16 construct: purchased Reaction Biology Corp
Description: as §1

DDR2 = target: T17, DDR2 (Homo sapiens, UniProt Q16832); assay: Kinome-wide inhibition profiling; assay type: biochemical
T17 construct: purchased Reaction Biology Corp
Description: as §1

TAOK1 = target: T18, TAOK1 (Homo sapiens, UniProt Q7L7X3); assay: Kinome-wide inhibition profiling; assay type: biochemical
T18 construct: purchased Reaction Biology Corp
Description: as §1

CLK1 = target: T19, CLK1 (Homo sapiens, UniProt P49759); assay: Kinome-wide inhibition profiling; assay type: biochemical
T19 construct: purchased Reaction Biology Corp
Description: as §1

LYN B = target: T20, LYN B (Homo sapiens, UniProt P07948); assay: Kinome-wide inhibition profiling; assay type: biochemical
T20 construct: purchased Reaction Biology Corp
T20 sequence (P07948 1-491 isoform P07948-2): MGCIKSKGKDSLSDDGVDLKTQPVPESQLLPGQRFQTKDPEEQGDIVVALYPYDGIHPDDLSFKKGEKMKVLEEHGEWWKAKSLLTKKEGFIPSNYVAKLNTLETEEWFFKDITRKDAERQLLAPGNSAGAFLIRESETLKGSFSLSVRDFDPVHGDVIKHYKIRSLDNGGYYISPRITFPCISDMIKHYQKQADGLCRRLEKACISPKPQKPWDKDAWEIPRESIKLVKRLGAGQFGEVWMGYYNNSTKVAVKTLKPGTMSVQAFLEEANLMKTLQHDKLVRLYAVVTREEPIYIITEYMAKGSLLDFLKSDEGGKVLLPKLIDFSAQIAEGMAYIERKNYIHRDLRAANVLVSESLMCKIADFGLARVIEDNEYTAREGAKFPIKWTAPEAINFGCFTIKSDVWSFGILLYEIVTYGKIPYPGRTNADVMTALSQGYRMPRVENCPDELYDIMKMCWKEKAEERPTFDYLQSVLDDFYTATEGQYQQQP
Description: as §1

PASK = target: T21, PASK (Homo sapiens, UniProt Q96RG2); assay: Kinome-wide inhibition profiling; assay type: biochemical
T21 construct: purchased Reaction Biology Corp
Description: as §1

CDK5/p35 = target: T22, CDK5/p35 (Homo sapiens, UniProt Q00535); assay: Kinome-wide inhibition profiling; assay type: biochemical
T22 construct: purchased Reaction Biology Corp
T22 sequence (Q00535 whole entry): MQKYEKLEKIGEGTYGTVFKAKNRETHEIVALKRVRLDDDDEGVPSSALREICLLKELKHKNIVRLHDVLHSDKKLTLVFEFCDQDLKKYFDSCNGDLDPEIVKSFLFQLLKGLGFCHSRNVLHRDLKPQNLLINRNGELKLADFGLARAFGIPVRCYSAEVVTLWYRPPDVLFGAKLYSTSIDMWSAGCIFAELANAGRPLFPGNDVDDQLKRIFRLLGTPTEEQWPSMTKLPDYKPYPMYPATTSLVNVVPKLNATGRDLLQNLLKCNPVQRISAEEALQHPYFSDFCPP
T22 sequence (Q15078 whole entry partner): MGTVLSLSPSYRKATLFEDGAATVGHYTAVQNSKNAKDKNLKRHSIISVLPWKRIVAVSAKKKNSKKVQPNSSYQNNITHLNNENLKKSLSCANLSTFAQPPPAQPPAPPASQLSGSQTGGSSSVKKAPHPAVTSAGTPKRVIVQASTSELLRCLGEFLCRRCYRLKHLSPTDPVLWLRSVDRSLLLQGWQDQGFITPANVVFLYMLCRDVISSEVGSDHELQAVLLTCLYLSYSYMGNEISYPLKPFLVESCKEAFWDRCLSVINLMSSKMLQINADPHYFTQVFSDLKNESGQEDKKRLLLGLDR
Description: as §1

PRKX = target: T23, PRKX (Homo sapiens, UniProt P51817); assay: Kinome-wide inhibition profiling; assay type: biochemical
T23 construct: purchased Reaction Biology Corp
Description: as §1

RET = target: T24, RET (Homo sapiens, UniProt P07949); assay: Kinome-wide inhibition profiling; assay type: biochemical
T24 construct: purchased Reaction Biology Corp
Description: as §1

HIPK1 = target: T25, HIPK1 (Homo sapiens, UniProt Q86Z02); assay: Kinome-wide inhibition profiling; assay type: biochemical
T25 construct: purchased Reaction Biology Corp
Description: as §1

DRAK1 = target: T26, DRAK1 (Homo sapiens, UniProt Q9UEE5); assay: Kinome-wide inhibition profiling; assay type: biochemical
T26 construct: purchased Reaction Biology Corp
Description: as §1

EGFR = target: T27, EGFR (Homo sapiens, UniProt P00533); assay: Kinome-wide inhibition profiling; assay type: biochemical
T27 construct: purchased Reaction Biology Corp
Description: as §1

MKK7 = target: T28, MKK7 (Homo sapiens, UniProt O14733); assay: Kinome-wide inhibition profiling; assay type: biochemical
T28 construct: purchased Reaction Biology Corp
Description: as §1

EPHA2 = target: T29, EPHA2 (Homo sapiens, UniProt P29317); assay: Kinome-wide inhibition profiling; assay type: biochemical
T29 construct: purchased Reaction Biology Corp
Description: as §1

ALK = target: T30, ALK (Homo sapiens, UniProt Q9UM73); assay: Kinome-wide inhibition profiling; assay type: biochemical
T30 construct: purchased Reaction Biology Corp
Description: as §1

EPHA6 = target: T31, EPHA6 (Homo sapiens, UniProt Q9UF33); assay: Kinome-wide inhibition profiling; assay type: biochemical
T31 construct: purchased Reaction Biology Corp
T31 sequence (Q9UF33 23-1036): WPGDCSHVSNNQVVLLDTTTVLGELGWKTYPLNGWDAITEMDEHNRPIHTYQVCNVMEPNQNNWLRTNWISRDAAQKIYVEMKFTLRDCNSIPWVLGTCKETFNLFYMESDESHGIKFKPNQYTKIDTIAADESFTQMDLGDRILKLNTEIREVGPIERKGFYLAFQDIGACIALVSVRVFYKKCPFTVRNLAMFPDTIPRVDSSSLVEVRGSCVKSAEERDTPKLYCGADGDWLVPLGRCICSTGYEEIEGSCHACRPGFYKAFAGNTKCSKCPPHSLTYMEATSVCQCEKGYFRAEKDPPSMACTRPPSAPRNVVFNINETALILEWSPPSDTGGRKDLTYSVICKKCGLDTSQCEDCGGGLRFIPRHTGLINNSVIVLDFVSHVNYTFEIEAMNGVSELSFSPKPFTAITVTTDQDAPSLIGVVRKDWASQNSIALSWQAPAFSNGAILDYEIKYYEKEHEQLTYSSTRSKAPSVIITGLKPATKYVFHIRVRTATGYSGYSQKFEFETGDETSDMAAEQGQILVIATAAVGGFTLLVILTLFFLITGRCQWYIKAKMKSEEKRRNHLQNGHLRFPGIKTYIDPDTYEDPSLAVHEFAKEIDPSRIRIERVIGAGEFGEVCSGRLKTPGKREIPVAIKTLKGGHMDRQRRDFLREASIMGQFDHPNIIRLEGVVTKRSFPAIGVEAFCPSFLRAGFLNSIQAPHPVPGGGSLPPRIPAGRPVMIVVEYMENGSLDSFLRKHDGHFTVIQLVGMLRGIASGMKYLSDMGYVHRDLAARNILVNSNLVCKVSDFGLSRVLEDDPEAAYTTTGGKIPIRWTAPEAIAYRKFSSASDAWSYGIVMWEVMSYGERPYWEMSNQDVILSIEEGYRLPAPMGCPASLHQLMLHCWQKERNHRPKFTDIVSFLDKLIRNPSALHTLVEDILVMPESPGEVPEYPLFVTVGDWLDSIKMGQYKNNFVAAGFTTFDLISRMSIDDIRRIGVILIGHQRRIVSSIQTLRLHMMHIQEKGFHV
Description: as §1

RIPK5 = target: T32, RIPK5 (Homo sapiens, UniProt Q6XUX3); assay: Kinome-wide inhibition profiling; assay type: biochemical
T32 construct: purchased Reaction Biology Corp
Description: as §1

CDK2/cyclinA = target: T33, CDK2/cyclinA (Homo sapiens, UniProt P24941); assay: Kinome-wide inhibition profiling; assay type: biochemical
T33 construct: purchased Reaction Biology Corp
Description: as §1

MAP3K3 = target: T34, MAP3K3 (Homo sapiens, UniProt Q99759); assay: Kinome-wide inhibition profiling; assay type: biochemical
T34 construct: purchased Reaction Biology Corp
Description: as §1

S6K1 = target: T35, S6K1 (Homo sapiens, UniProt P23443); assay: Kinome-wide inhibition profiling; assay type: biochemical
T35 construct: purchased Reaction Biology Corp
T35 sequence (P23443 whole entry): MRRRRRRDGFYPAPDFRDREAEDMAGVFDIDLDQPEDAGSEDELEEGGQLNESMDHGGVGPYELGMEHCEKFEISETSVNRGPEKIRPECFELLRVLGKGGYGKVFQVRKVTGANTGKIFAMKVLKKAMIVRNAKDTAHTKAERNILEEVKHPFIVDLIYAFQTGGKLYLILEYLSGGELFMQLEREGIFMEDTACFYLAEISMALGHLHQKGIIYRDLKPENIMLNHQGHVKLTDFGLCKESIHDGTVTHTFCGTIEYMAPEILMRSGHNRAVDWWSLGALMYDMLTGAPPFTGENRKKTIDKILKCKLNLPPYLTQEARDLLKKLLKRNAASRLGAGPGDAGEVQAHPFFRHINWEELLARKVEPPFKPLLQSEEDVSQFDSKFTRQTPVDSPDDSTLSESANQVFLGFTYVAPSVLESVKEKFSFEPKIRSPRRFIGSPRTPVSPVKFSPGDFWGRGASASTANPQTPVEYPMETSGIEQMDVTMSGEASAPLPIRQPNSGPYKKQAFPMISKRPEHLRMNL
Description: as §1

TGFBR1 = target: T36, TGFBR1 (Homo sapiens, UniProt P36897); assay: Kinome-wide inhibition profiling; assay type: biochemical
T36 construct: purchased Reaction Biology Corp
T36 sequence (P36897 34-503): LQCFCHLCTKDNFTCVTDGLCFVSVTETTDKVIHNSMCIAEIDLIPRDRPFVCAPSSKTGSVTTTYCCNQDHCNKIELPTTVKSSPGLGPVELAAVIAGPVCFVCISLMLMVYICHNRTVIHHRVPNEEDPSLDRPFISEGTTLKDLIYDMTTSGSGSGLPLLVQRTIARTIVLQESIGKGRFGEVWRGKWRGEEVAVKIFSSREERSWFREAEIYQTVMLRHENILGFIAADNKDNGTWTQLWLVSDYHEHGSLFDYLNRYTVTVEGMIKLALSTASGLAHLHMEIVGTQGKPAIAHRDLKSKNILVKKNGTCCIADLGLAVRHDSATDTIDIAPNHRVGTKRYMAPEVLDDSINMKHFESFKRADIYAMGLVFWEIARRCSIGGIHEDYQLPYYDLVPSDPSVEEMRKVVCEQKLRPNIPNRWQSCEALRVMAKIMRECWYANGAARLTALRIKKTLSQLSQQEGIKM
Description: as §1

TRKB = target: T37, TRKB (Homo sapiens, UniProt Q16620); assay: Kinome-wide inhibition profiling; assay type: biochemical
T37 construct: purchased Reaction Biology Corp
Description: as §1

ULK3 = target: T38, ULK3 (Homo sapiens, UniProt Q6PHR2); assay: Kinome-wide inhibition profiling; assay type: biochemical
T38 construct: purchased Reaction Biology Corp
Description: as §1

CCc1cnn2c(NCc3ccc[n+]([O-])c3)cc(N3CCCC[C@H]3CCO)nc12 [Dinaciclib]
% control (PCTK1): 0.3% | % control (ERK8): 1.0% | % control (DYRK1A): 6.0% | % control (CDKL2): 10% | % control (CLK4): 5.1% | % control (CDK4-cyclinD1): 0.1% | % control (YSK1): 9.2%

CCn1cnc2c(NCc3ccc(-c4ccccn4)nc3)nc(-c3ccc(N)nc3)nc21 [Compound 30d, N-([2,2′-Bipyridin]-5-ylmethyl)-2-(6-aminopyridin-3-yl)-9-ethyl-9H-purin-6-amine]
remaining activity at 10 µM (ABL1): 61.2% | remaining activity at 10 µM (YANK3): 86.6% | remaining activity at 10 µM (ERN2): 65.4% | remaining activity at 10 µM (PKCzeta): 90.2% | remaining activity at 10 µM (PRKCH): 87.9% | remaining activity at 10 µM (ERK5): 97.7% | remaining activity at 10 µM (VEGFR2): 88.6% | remaining activity at 10 µM (DYRK3): 58.6% | remaining activity at 10 µM (EPHB1): 13.6% | remaining activity at 10 µM (IRAK2): 97.5% | remaining activity at 10 µM (MYO3A): 71.3% | inhibition at 10 µM (CDK1/cyclinB): > 95% | remaining activity at 10 µM (CDK1/cyclinB): 2.1% | remaining activity at 10 µM (PAK6): 57.2% | remaining activity at 10 µM (DDR2): 87.2% | remaining activity at 10 µM (TAOK1): 28.1% | remaining activity at 10 µM (CLK1): 13.7% | remaining activity at 10 µM (LYN B): 54.4% | remaining activity at 10 µM (PASK): 96.3% | inhibition at 10 µM (CDK5/p35): > 95% | remaining activity at 10 µM (CDK5/p35): 0.7% | remaining activity at 10 µM (PRKX): 79.2% | remaining activity at 10 µM (RET): 79.4% | remaining activity at 10 µM (HIPK1): 93% | remaining activity at 10 µM (DRAK1): 79.3% | remaining activity at 10 µM (EGFR): 83.7% | remaining activity at 10 µM (MKK7): 96.3% | remaining activity at 10 µM (EPHA2): 42.3% | remaining activity at 10 µM (ALK): 59.7% | inhibition at 10 µM (EPHA6): > 95% | remaining activity at 10 µM (EPHA6): 3% | remaining activity at 10 µM (RIPK5): 67.8% | inhibition at 10 µM (CDK2/cyclinA): > 95% | remaining activity at 10 µM (CDK2/cyclinA): 1.2% | remaining activity at 10 µM (MAP3K3): 94% | remaining activity at 10 µM (S6K1): 92.1% | remaining activity at 10 µM (TGFBR1): 112% | remaining activity at 10 µM (TRKB): 16.5% | remaining activity at 10 µM (ULK3): 91.8%
